From BindingDB's records for doi:10.1021/jm050825p (National Institute of Allergy and Infectious Diseases, 2006) come the findings set out here.

The target of assay [1] is T1, 3-oxoacyl-[acyl-carrier-protein] synthase 2 (Mycobacterium tuberculosis (strain ATCC 25618 / H37Rv), UniProt P9WQD7).
T1 sequence (P9WQD7 whole entry): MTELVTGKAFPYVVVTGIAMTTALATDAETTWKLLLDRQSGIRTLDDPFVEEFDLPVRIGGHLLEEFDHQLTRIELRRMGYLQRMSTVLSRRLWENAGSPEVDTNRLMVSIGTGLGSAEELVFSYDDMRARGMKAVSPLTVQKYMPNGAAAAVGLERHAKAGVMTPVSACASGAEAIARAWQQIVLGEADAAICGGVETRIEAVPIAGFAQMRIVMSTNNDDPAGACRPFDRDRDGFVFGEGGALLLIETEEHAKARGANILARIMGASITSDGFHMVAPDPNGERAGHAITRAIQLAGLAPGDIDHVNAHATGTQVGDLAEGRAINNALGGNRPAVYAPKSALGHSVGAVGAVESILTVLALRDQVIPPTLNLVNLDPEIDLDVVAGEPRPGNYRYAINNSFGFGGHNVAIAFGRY
Description: Inhibitory activity against KasB from Mycobacterium tuberculosis H37Rv.

Assay [2] addresses T2, 3-oxoacyl-[acyl-carrier-protein] synthase 3 (Mycobacterium tuberculosis (strain ATCC 25618 / H37Rv), UniProt P9WNG3).
T2 sequence (P9WNG3 whole entry): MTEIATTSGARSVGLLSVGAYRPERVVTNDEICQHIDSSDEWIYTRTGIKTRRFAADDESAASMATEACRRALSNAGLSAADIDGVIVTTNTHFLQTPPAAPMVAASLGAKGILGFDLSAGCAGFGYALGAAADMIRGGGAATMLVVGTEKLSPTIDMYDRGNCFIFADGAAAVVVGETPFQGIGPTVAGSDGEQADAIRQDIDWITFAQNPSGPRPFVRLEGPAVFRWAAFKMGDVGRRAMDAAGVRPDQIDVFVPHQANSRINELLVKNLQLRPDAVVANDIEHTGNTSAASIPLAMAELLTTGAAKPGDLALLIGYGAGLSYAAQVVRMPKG
Description: Inhibitory activity against FabH from Mycobacterium tuberculosis H37Rv.

Assay [3] concerns the target T3, 3-oxoacyl-[acyl-carrier-protein] synthase 1 (Escherichia coli (strain K12), UniProt P0A953).
T3 sequence (P0A953 whole entry): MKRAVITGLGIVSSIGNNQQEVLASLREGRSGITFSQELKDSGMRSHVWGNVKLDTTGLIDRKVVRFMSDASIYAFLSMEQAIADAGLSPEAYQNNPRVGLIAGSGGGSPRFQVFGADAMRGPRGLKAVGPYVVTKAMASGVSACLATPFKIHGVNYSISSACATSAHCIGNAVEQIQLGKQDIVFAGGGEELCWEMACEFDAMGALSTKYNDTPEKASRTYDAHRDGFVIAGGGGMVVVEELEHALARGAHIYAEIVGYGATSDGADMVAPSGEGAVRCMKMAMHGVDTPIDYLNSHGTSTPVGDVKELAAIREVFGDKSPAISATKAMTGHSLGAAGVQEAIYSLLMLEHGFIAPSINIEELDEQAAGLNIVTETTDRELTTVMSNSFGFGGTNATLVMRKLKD
As to the kind of experiment: Inhibitory activity against FabB from Escherichia coli ANSI.

The target of assay [4] is T4, 3-oxoacyl-[acyl-carrier-protein] synthase 3 (Escherichia coli, UniProt C3TDZ2).
T4 sequence (C3TDZ2 whole entry): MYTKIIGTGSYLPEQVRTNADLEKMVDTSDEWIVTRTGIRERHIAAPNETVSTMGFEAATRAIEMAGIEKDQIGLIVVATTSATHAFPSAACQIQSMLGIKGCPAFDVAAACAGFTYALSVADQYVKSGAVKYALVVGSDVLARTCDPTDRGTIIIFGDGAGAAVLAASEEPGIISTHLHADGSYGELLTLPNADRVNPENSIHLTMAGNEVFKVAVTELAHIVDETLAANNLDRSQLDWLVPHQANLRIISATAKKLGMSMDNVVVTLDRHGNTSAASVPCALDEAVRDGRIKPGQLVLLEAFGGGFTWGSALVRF
Description: Inhibitory activity against FabH from Escherichia coli ANSI.

A value given as a limit tells only on which side of the number the result lay.

As to `Cc1ccc(C)c(CC2(C)SC(=O)C(C)C2=O)c1` (stereo unspecified) [3,5-dimethyl-5-(2,5-dimethylbenzyl)-4-hydroxy-5H-thiophen-2-one], the IC50 in assay [1], in assay [2], in assay [3] and in assay [4] was over 1 mM in each case.
With `CC1C(=O)SC(C)(Cc2ccc([N+](=O)[O-])cc2)C1=O` (stereo unspecified) [3,5-dimethyl-4-hydroxy-5-(4-nitrobenzyl)-5H-thiophen-2-one], the IC50 in assay [1], in assay [2], in assay [3] and in assay [4] was over 1 mM in each case.
In the case of `CC1C(=O)SC(C)(Cc2cccc(C(F)(F)F)c2)C1=O` (stereo unspecified) [3,5-dimethyl-4-hydroxy-5-(3-trifluoromethylbenzyl)-5H-thiophen-2-one], the IC50 in assay [1], in assay [2], in assay [3] and in assay [4] was over 1 mM in each case.
`CC(C)CCC1(C)SC(=O)C(C)C1=O` (stereo unspecified) [3,5-dimethyl-4-hydroxy-5-(3-methylbutyl)-5H-thiophen-2-one]: the IC50 in assay [1], in assay [2], in assay [3] and in assay [4] was over 1 mM throughout.
In the case of `CC/C=C/CC1(C)SC(=O)C(C)C1=O` (stereo unspecified) [3,5-dimethyl-4-hydroxy-5-((E)-pent-2-enyl)-5H-thiophen-2-one], the IC50 in assay [1], in assay [2], in assay [3] and in assay [4] was over 1 mM each time.
As for `CC1C(=O)SC(C)(Cc2ccccc2Cl)C1=O` (stereo unspecified) [5-(2-chlorobenzyl)-3,5-dimethyl-4-hydroxy-5H-thiophen-2-one], the IC50 in assay [1], in assay [2], in assay [3] and in assay [4] was over 1 mM in each case.
Regarding `CCCCCC(C)C1(C)SC(=O)C(C)C1=O` (stereo unspecified) [3,5-dimethyl-4-hydroxy-5-(1-methylhexyl)-5H-thiophen-2-one], the IC50 in assay [1], in assay [2], in assay [3] and in assay [4] was over 1 mM in each case.
For the compound `CCCCCCCCCC1(C)SC(=O)C(C)C1=O` (stereo unspecified) [3,5-dimethyl-4-hydroxy-5-nonyl-5H-thiophen-2-one], the IC50 was over 1 mM in assay [1], over 0.1 mM in assay [2], over 1 mM in assay [3] and over 0.1 mM in assay [4].
Take `CCCCC(CC)CC1(C)SC(=O)C(C)C1=O` (stereo unspecified) [3,5-dimethyl-5-(2-ethylhexyl)-4-hydroxy-5H-thiophen-2-one]: the IC50 in assay [1], in assay [2], in assay [3] and in assay [4] was over 1 mM throughout.
In the case of `C=CCCCCCCC1(C)SC(=O)C(C)C1=O` (stereo unspecified) [3,5-dimethyl-4-hydroxy-5-oct-7-enyl-5H-thiophen-2-one], the concentration for half-maximal inhibition (IC50) in assay [1], in assay [2], in assay [3] and in assay [4] was over 1 mM each time.
Consider `CC1C(=O)SC(C)(Cc2ccc(C(C)(C)C)cc2)C1=O` (stereo unspecified) [5-(4-tert-butylbenzyl)-3,5-dimethyl-4-hydroxy-5H-thiophen-2-one], for which the IC50 was over 1 mM in assay [1], over 0.1 mM in assay [2], over 1 mM in assay [3] and over 1 mM in assay [4].
`CC1C(=O)SC(C)(Cc2cccc(Cl)c2)C1=O` (stereo unspecified) [5-(3-chlorobenzyl)-3,5-dimethyl-4-hydroxy-5H-thiophen-2-one]: the IC50 in assay [1], in assay [2], in assay [3] and in assay [4] was over 1 mM throughout.
On to `COc1ccc(CC2(C)SC(=O)C(C)C2=O)cc1` (stereo unspecified) [4-Hydroxy-5-(4-methoxy-benzyl)-3,5-dimethyl-5H-thiophen-2-one], for which the IC50 in assay [1], in assay [2], in assay [3] and in assay [4] was over 1 mM in each case.
For `COc1cc(CC2(C)SC(=O)C(C)C2=O)cc(OC)c1` (stereo unspecified) [3,5-dimethyl-5-(3,5-dimethoxybenzyl)-4-hydroxy-5H-thiophen-2-one], the IC50 in assay [1], in assay [2], in assay [3] and in assay [4] was over 1 mM each time.
